Experimental data as given in US20080249001A1, “AGENTS THAT ALLEVIATE SIDE-EFFECTS CAUSED BY CHEMOTHERAPY AGENTS” (priority 2006, published 2008).
Structures can show the parent of a compound that is named as a salt. Bridges are numbered along the chain shown (N, C = ends). Where no end group is shown, it is not given here.

Columns and labels:
[1] = tested on: mouse bone-marrow cells (CFU-E colonies); assay: in vitro CFU-E colony assay under the existence of EPO mimic peptide EMP1; format: cell-based
Procedure: The bone-marrow cells were prepared by the same method as that of Example 1, using a male BDF-1 mouse of 10 weeks old (by Charles River Laboratories Japan, Inc.). 1 mL of a methylcellulose semisolid medium wherein the bone-marrow cells were suspended in the IMDM medium of ⅓ concentration (1, 3, 10 and 30 μM of EMP1; 100 μM of 2-mercaptoethanol by Wako Pure Chemical Industries, Ltd.; 24% FCS by JRH Biosciences; 0.8% methylcellulose, IMDM solution M3134 containing methylcellulose by StemCell Technologies Inc.; 2% BSA by Sigma-Aldrich Japan K.K.; and bone-marrow cells 2×10^5/mL) was added to a dish of 3.5 cm in diameter (Nalge Nunc International K.K.). After the medium was cultured at 37° C. under 5% CO2 for 48 hours, the number of CFU-E colonies was determined by using an inverted microscope. […] Data is indicated as the average value.
The in vitro CFU-E colony assay was conducted in the EMP1 concentration of the maximal action amount thereof. The bone-marrow cells were prepared by the same method as that of Example 1, using a male BDF-1 mouse of 10 weeks old (by Charles River Laboratories Japan, Inc.). […] After each medium was cultured at 37° C. under 5% CO2 for 48 hours, the number of CFU-E colonies was determined by using an inverted microscope. […] Data is indicated as the average value. The vertical axis is the relative value (%) when regarding the number of CFU-E colonies in the control case as 100%.

[2] = tested on: mouse bone-marrow cells (CFU-E colonies); assay: in vitro CFU-E colony assay in methylcellulose semisolid medium under the existence of EPO; format: cell-based; details: for CFU-E inhibiting action (inhibition of expression of CFU-E colonies) / CFU-E inhibiting action (expression of CFU-E colonies): 48 hours
Procedure: (§1) More specifically, the in vitro colony assay method wherein a methylcellulose semisolid medium is used is generally used as the method for determining CFU-E. It is the most suitable experimental system for finding the action of improving the decrease of CFU-E caused by chemotherapy agents. […] In the oral administration to rats, the single administration of 1.2 g/kg of arginine makes the blood concentration thereof reach around 600 μM. Therefore, the increase of CFU-E dependent on the administered dose is expected in the oral administration. In human beings, too, it is expected that the number of CFU-E increases depending on the blood concentration of arginine by the oral administration.
The in vitro CFU-E colony assay was conducted as follows. After making a male BDF-1 mouse of 11 weeks old (by Charles River Laboratories Japan, Inc.) die by the cervical dislocation method, the bone-marrow cells were isolated from the thighbone and suspended in the IMDM medium (by Invitrogen Corporation) which contained 10% FCS (by JRH Biosciences). The bone-marrow cells were centrifuged at 1500 rpm for 10 minutes at 4° C. Then, the precipitated bone-marrow cells were substituted on the IMDM medium without an amino acid, and the number of the cells was determined. 1 mL of a methylcellulose semisolid medium wherein the bone-marrow cells were suspended in the IMDM medium of ⅓ concentration (0.03, 0.1, 0.3 and 1.0 U/mL of rHuEPO by Chugai Pharmaceutical Co., Ltd.; 100 μM of 2-mercaptoethanol by Wako Pure Chemical Industries, Ltd.; 15% FCS by JRH Biosciences; 0.8% methylcellulose, IMDM solution M3134 containing methylcellulose by StemCell Technologies Inc.; 1% BSA by Sigma-Aldrich Japan K.K.; and bone-marrow cells 2.5×10^5/mL) was added to a dish of 3.5 cm in diameter (Nalge Nunc International K.K.). After the medium was cultured at 37° C. under 5% CO2 for 48 hours, the number of CFU-E colonies was determined by using an inverted microscope. […] Data is indicated as the average value.
The in vitro CFU-E colony assay was conducted in the EPO concentration of the maximal action amount thereof. […] Then, the number of CFU-E colonies was determined by using an inverted microscope. […] Data is indicated as the average value.
The CFU-E colony assay was conducted by the same method as that of Example 1. […] Data is indicated as the average value. The vertical axis is the relative value (%) when regarding the number of CFU-E colonies in the control case as 100%.
The in vitro CFU-E colony assay was conducted in the EPO concentration of the maximal action amount thereof. The bone-marrow cells were prepared by the same method as that of Example 1, using a male BDF-1 mouse of 12 weeks old (by Charles River Laboratories Japan, Inc.). Irinotecan hydrochloride was further added to a methylcellulose semisolid medium wherein the bone-marrow cells were suspended in the IMDM medium of ⅓ concentration (1.0 U/mL of rHuEPO by Chugai Pharmaceutical Co., Ltd.; 100 μM of 2-mercaptoethanol by Wako Pure Chemical Industries, Ltd.; 30% FCS by JRH Biosciences; 0.8% methylcellulose, IMDM solution M3134 containing methylcellulose by StemCell Technologies Inc.; 1% BSA by Sigma-Aldrich Japan K.K.; and bone-marrow cells 2.5×10^5/mL), so that the final concentration of irinotecan hydrochloride became 1 μM and 10 μM. After the medium was cultured at 37° C. under 5% CO2 for 48 hours, the number of CFU-E colonies was determined by using an inverted microscope. […] Data is indicated as the average value.
The CFU-E colony assay was conducted by the same method as that of above (1), using a male BDF-1 mouse of 11 weeks old (by Charles River Laboratories Japan, Inc.). The medium to which only 3 μM of irinotecan hydrochloride in its final concentration was added and the medium to which irinotecan hydrochloride in the same concentration as above and 600 uM of arginine were simultaneously further added were prepared and the number of CFU-E colonies was determined. […]

[3] = blood concentration of arginine after oral administration to rats; format: in vivo; details: single administration of 1.2 g/kg
Procedure: as §1

Compound: COc1cc([C@@H]2c3cc4c(cc3[C@@H](O[C@@H]3O[C@@H]5CO[C@@H](C)O[C@H]5[C@H](O)[C@H]3O)[C@H]3COC(=O)[C@H]23)OCO4)cc(OC)c1O [VP-16, etoposide]
- decrease of number of CFU-E colonies due to single addition ([1]; 10 nM VP-16 alone, 30 μM EMP1, relative to control 100%, FIG. 7): about 30%
- CFU-E inhibiting action (inhibition of expression of CFU-E colonies) ([2]; 1 nM VP-16, 1 U/mL EPO, FIG. 2): 10%
- CFU-E inhibiting action (inhibition of expression of CFU-E colonies) ([2]; 10 nM VP-16, 1 U/mL EPO, FIG. 2): 30%
- CFU-E inhibiting action (expression of CFU-E colonies) ([2]; 100 nM VP-16, 1 U/mL EPO, FIG. 2): nearly completely inhibited

Compound: N=C(N)NCCC[C@H](N)C(=O)O [arginine]
- number of CFU-E colonies improved on simultaneous addition of arginine ([1]; 600 μM arginine + 10 nM VP-16, 30 μM EMP1, relative value to control 100%, FIG. 7): ~90%
- blood concentration [3]: around 600 μM
- number of CFU-E colonies improved on simultaneous addition of arginine ([2]; 600 uM arginine + 10 nM VP-16, 1 U/mL EPO, relative value to control 100%, FIG. 3): ~90%
- increase of number of CFU-E colonies as compared with single addition of irinotecan hydrochloride ([2]; 600 uM arginine + 3 μM irinotecan hydrochloride, 1 U/mL EPO, FIG. 5): ~30%

Compound: CCc1c2c(nc3ccc(OC(=O)N4CCC(N5CCCCC5)CC4)cc13)-c1cc3c(c(=O)n1C2)COC(=O)[C@]3(O)CC [irinotecan hydrochloride]
- CFU-E inhibiting action (inhibition of expression of CFU-E colonies) ([2]; 1 μM irinotecan hydrochloride, 1 U/mL EPO, FIG. 4): 30%
- CFU-E inhibiting action (expression of CFU-E colonies) ([2]; 10 μM irinotecan hydrochloride, 1 U/mL EPO, FIG. 4): nearly completely inhibited

Compound: GGTYSCHFGPLTWVCKPQGG-NH2, C6-C15 disulfide bonding (disulfide 6-15; N-terminus assumed; SMILES CC(C)C[C@@H]1NC(=O)[C@@H]2CCCN2C(=O)CNC(=O)[C@H](Cc2ccccc2)NC(=O)[C@H](Cc2c[nH]cn2)NC(=O)[C@@H](NC(=O)[C@H](CO)NC(=O)[C@H](Cc2ccc(O)cc2)NC(=O)[C@@H](NC(=O)CNC(=O)CN)[C@@H](C)O)CSSC[C@@H](C(=O)N[C@@H](CCCCN)C(=O)N2CCC[C@H]2C(=O)N[C@@H](CCC(N)=O)C(=O)NCC(=O)NCC(N)=O)NC(=O)[C@H](C(C)C)NC(=O)[C@H](Cc2c[nH]c3ccccc23)NC(=O)[C@H]([C@@H](C)O)NC1=O) [EMP1]
- maximal action amount (CFU-E colony formation) ([1]; EMP1 1, 3, 10 and 30 μM, 48 hours culture, FIG. 6): ≥ 10 µM
